From the supplement of paper PMC10307832

How the values were obtained:
Experiment in all cases: relative viability (nuclei count vs DMSO), 5 days (fraction); higher = more cells survive
IU1-47 + Palbociclib = compound: CC1=CC(=C(N1C2=CC=C(C=C2)Cl)C)C(=O)CN3CCCCC3 [IU1-47] + CC(=O)c1c(C)c2cnc(Nc3ccc(N4CCNCC4)cn3)nc2n(C2CCCC2)c1=O [Palbociclib] (partner 0.5 µM)
Summary of the method: (§1)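 Lung cancer cell lines were pin-tool dosed in 1536-well plates on the day after seeding, with either a lone drug or a fixed anchor-drug dose plus five library-drug doses (not always all listed) in √10 steps. Nuclei were counted on 4× images after 5 days. Relative viability is the ratio of treated-well to vehicle-well nuclei counts, with each value a median of duplicate plates.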

IU1-47 + Navitoclax = compound: CC1=CC(=C(N1C2=CC=C(C=C2)Cl)C)C(=O)CN3CCCCC3 [IU1-47] + CC1(C)CCC(c2ccc(Cl)cc2)=C(CN2CCN(c3ccc(C(=O)NS(=O)(=O)c4ccc(N[C@H](CCN5CCOCC5)CSc5ccccc5)c(S(=O)(=O)C(F)(F)F)c4)cc3)CC2)C1 [Navitoclax] (partner 0.5 µM)
Summary of the method: as §1

FG-4592 + Crizotinib = compound: Cc1nc(C(=O)NCC(=O)O)c(O)c2ccc(Oc3ccccc3)cc12 [FG-4592] + C[C@@H](Oc1cc(-c2cnn(C3CCNCC3)c2)cnc1N)c1c(Cl)ccc(F)c1Cl [Crizotinib] (partner 1 µM)
Summary of the method: as §1

FG-4592 + Linsitinib = compound: Cc1nc(C(=O)NCC(=O)O)c(O)c2ccc(Oc3ccccc3)cc12 [FG-4592] + C[C@]1(O)C[C@@H](c2nc(-c3ccc4ccc(-c5ccccc5)nc4c3)c3c(N)nccn32)C1 [Linsitinib] (partner 1 µM)
Summary of the method: as §1

Row | Cell Line | relative viability (IU1-47 + Palbociclib; first compound 0.08 µM) | relative viability (IU1-47 + Palbociclib; first compound 0.253 µM) | relative viability (IU1-47 + Palbociclib; first compound 0.8 µM) | relative viability (IU1-47 + Palbociclib; first compound 2.53 µM) | relative viability (IU1-47 + Palbociclib; first compound 8 µM) | relative viability (IU1-47 + Navitoclax; first compound 0.08 µM) | relative viability (IU1-47 + Navitoclax; first compound 0.253 µM) | relative viability (IU1-47 + Navitoclax; first compound 0.8 µM) | relative viability (IU1-47 + Navitoclax; first compound 2.53 µM) | relative viability (IU1-47 + Navitoclax; first compound 8 µM) | relative viability (FG-4592 + Crizotinib; first compound 0.253 µM) | relative viability (FG-4592 + Crizotinib; first compound 2.53 µM) | relative viability (FG-4592 + Crizotinib; first compound 8 µM) | relative viability (FG-4592 + Linsitinib; first compound 0.08 µM) | relative viability (FG-4592 + Linsitinib; first compound 0.253 µM) | relative viability (FG-4592 + Linsitinib; first compound 0.8 µM) | relative viability (FG-4592 + Linsitinib; first compound 2.53 µM) | relative viability (FG-4592 + Linsitinib; first compound 8 µM) | relative viability (FG-4592 + Crizotinib; first compound 0.08 µM) | relative viability (FG-4592 + Crizotinib; first compound 0.8 µM)
1 | LK-2 | 1.04 | 1.03 | 0.568 | 0.68 | 0.559 | 1.11 | 0.956 | 0.893 | 0.773 | 0.546 | 0.23 | 0.279 | 0.216 | 0.434 | 0.615 | 0.383 | 0.662 | 0.424 | – | –
2 | LOU-NH91 | 0.524 | 0.533 | 0.539 | 0.431 | 0.507 | 0.772 | 0.687 | 0.638 | 0.609 | 0.652 | 0.677 | 0.727 | 0.715 | 0.92 | 0.83 | 0.755 | 0.938 | 0.907 | 0.738 | 0.716
3 | LU99A | 0.373 | 0.43 | 0.399 | 0.496 | 0.372 | 0.824 | 0.815 | 0.974 | 0.937 | 0.75 | 0.523 | 0.558 | 0.58 | 0.488 | 0.565 | 0.46 | 0.483 | 0.548 | 0.534 | 0.543
4 | LXF-289 | 0.634 | 0.679 | 0.603 | 0.58 | 0.619 | 0.993 | 1 | 0.985 | 0.92 | 0.975 | 0.721 | 0.77 | 0.901 | 0.972 | 0.947 | 1.02 | 0.968 | 1.02 | 0.796 | 0.911
5 | NCI-H23 | 0.532 | – | 0.431 | 0.511 | 0.499 | 0.791 | 0.903 | 0.987 | 0.925 | 0.716 | 0.471 | 0.627 | 0.472 | 0.611 | 0.501 | 0.635 | 0.496 | 0.463 | 0.556 | 0.654
6 | NCI-H322M | 0.489 | 0.551 | 0.487 | 0.537 | 0.494 | 1.31 | 1.21 | 1.1 | 1.27 | 1.23 | 0.886 | 1.02 | 0.815 | 0.858 | 0.914 | 0.807 | 0.92 | 0.861 | 0.924 | 1.19
7 | NCI-H441 | 0.265 | 0.243 | 0.206 | 0.204 | 0.188 | 0.574 | 0.497 | 0.655 | 0.684 | 0.548 | 0.646 | 0.72 | 0.632 | 0.451 | 0.498 | 0.477 | 0.57 | 0.562 | 0.582 | 0.916
8 | NCI-H460 | 0.24 | 0.123 | 0.16 | 0.153 | 0.105 | 1.3 | 1.08 | 1.36 | 1.02 | 1.38 | 0.864 | 0.952 | 0.994 | 0.708 | 0.665 | 0.788 | 0.766 | 0.748 | 0.87 | 1.21
9 | NCI-H520 | 0.218 | 0.227 | 0.223 | 0.204 | 0.237 | 1.22 | 1.12 | 1.26 | 1.02 | 0.981 | 0.652 | 0.758 | 0.586 | 0.85 | 0.895 | 1.04 | 0.953 | 0.764 | 0.731 | 0.932
10 | NCI-H647 | 0.38 | 0.416 | 0.416 | 0.419 | 0.42 | 1.31 | 1.3 | 1.19 | 1.26 | 1.04 | 1.04 | 1.17 | 1.03 | 1.18 | 1.1 | 1.3 | 1.32 | 1.16 | 0.941 | 1.01
11 | NCI-H727 | 0.642 | 0.648 | 0.606 | 0.686 | 0.669 | 0.454 | – | 0.597 | 0.413 | 0.391 | 0.827 | 1.1 | 0.83 | 0.298 | 0.307 | 0.3 | 0.268 | 0.271 | 0.776 | 0.913
12 | NCI-H838 | 0.181 | 0.222 | 0.225 | 0.232 | 0.236 | 1.25 | 1.21 | 1.32 | 1.27 | 1.15 | 0.799 | 0.941 | 0.904 | 1.1 | 0.941 | 1.01 | 1.04 | 0.938 | 0.795 | 0.962
13 | NCI-H1355 | 0.422 | 0.414 | 0.41 | – | 0.37 | 0.946 | 0.943 | 0.977 | 0.898 | 0.848 | 1.02 | 1.07 | 0.944 | 0.87 | 0.778 | – | 0.843 | 0.736 | 1.05 | –
14 | NCI-H1437 | 0.284 | 0.281 | 0.344 | 0.282 | 0.294 | 1.15 | 1.08 | 1.1 | 0.982 | 0.955 | 0.911 | 0.936 | 0.879 | 0.995 | 0.976 | 0.99 | 0.95 | 0.786 | 0.95 | 1.03
